# Data taken from patent US20250296939A1, “BENZOTHIOPHENE COMPOUND” (Kyoto Pharmaceutical Industries, Ltd., priority 2022, published 2025).
# What was measured:
# [1] = biological target: GST-fused human Keap1 (amino acid residues: 325-642) protein (Homo sapiens (Human), UniProt Q14145); experiment: FP assay (in vitro): inhibition of binding between Nrf2 and Keap1 by fluorescence polarization; settings: 20 nM GST-fused human Keap1, 10 nM FITC-labeled Nrf2 peptide, 2 hr at room temperature
# Method: Experimental Example 1: FP Assay (In Vitro)
# The inhibitory activity of test compounds on the binding between Nrf2 and Keap1 was determined by fluorescence polarization. A solution of 50 mM Tris-HCl pH.8.0 (NACALAI, REF: 06938-15), and 5 mM DTT (SIGMA-ALDRICH, REF: 646563-10X.5 mL) was used as a buffer solution. 8 μL of a buffer solution containing 40 nM GST-fused human Keap1 (amino acid residues: 325-642) protein (Protein tech, REF: Ag0779) was taken in a black 384-well plate (final concentration 20 nM), and 4 μL of the test compound solution prepared to each concentration in buffer solution was added thereto. A well containing a portion of the buffer solution without Keap1 was placed as a negative control. A well with no compound was used as a positive control. 40 nM of FITC-labeled Nrf2 peptide (FITC-X-LQLDEETGEFLPIQ (X=ε-Acp), Peptide Institute Inc.) was added thereto (10 nM final concentration). The wells were incubated at room temperature for 2 hr, and then fluorescence polarization was measured with a plate reader SPECTRAMAX Paradigm (Molecular devices) at excitation wavelength of 485 nm and fluorescence wavelength of 535 nm. The fluorescence polarization of the negative control was set to 100% inhibition and that of the positive control to 0% inhibition, and the inhibitory rate upon addition of the test compound was calculated using the following formula.
# [2] = tested on: NQO1 activity in Hepa1c1c7 cells; experiment: NAD(P)H: quinone oxidoreductase-1 (NQO1) enzyme induction assay (in vitro); assay type: cell-based, mouse; settings: about 48 hr, ratio from the base without the compound; for fold induction at 0.4 µM: Mus musculus, Hepa-1c1c7, NQO1 activity upon addition of 400 nM of test compound
# Method: Experimental Example 2: NAD(P)H: Quinone Oxidoreductase-1 (NQO1) Enzyme Induction Assay (In Vitro)
# The NQO1 assay was performed based on a previous report (Methods in Enzymology 2004; 382: 243-258). Hepa1c1c7 cells (mouse hepatocyte cell line, ATCC, cat. no. CRL-2026) were cultured in D-MEM medium containing 10% FBS and 1% penicillin/streptomycin (5% CO2, 37° C.), and seeded into 96-well plates (Corning REF. 353072) at 1×10^4 cells/well. A portion of the wells were prepared with medium only for background measurement without seeding cells. The next day, 400 nM of the test compound (0.004% of the final concentration in DMSO) dissolved in DMSO was added thereto, and the wells were incubated for about 48 hr. A well without adding the test compound was prepared for base activity assay in part.
# Cell lysate (solution containing 0.8% digitonin, 2 mM EDTA), reaction solution (solution containing 25 mM Tris-HCl, 0.07% albumin, 0.01% Tween-20, 2 U/mL glucose-6-phosphate dehydrogenase, 5 μM flavin adenine dinucleotide, 1 μM glucose-6-phosphate, 30 μM nicotinamide adenine dinucleotide phosphate, 0.03% 3-(4,5-dimethyl-2-thiazolyl)-2,5-diphenyltetrazolium bromide (MTT), and 50 μM menadione), stop solution (solution containing 0.3 mM dicoumarol and 5 mM potassium dihydrogen phosphate, pH 7.4) were prepared. After the medium was removed, 50 μL of the cell lysate was added and incubated at 37° C. for 10 minutes, followed by shaking at room temperature for 10 minutes. 200 μL of reaction solution was added thereto, and allowed to stand for 5 minutes at room temperature. 50 μL of the stop solution was added thereto, and absorbance was measured at 610 nm on a SpectraMax PLUS384 (Molecular devices) or POWERSCAN HT (DS Pharma Biomedical). The test results were analyzed in Excel, and the NQO1 activity upon addition of 400 nM of test compound was calculated as a ratio from the base without the compound.
# The results of each test compound in this test are shown in the following Table 2 (A: 5<NQO1 activity ratio, B: 3<NQO1 activity ratio 5, C: 1.5<NQO1 activity ratio 3).
# Sequence of GST-fused human Keap1 (amino acid residues: 325-642) protein (Q14145 325-624 limits assumed): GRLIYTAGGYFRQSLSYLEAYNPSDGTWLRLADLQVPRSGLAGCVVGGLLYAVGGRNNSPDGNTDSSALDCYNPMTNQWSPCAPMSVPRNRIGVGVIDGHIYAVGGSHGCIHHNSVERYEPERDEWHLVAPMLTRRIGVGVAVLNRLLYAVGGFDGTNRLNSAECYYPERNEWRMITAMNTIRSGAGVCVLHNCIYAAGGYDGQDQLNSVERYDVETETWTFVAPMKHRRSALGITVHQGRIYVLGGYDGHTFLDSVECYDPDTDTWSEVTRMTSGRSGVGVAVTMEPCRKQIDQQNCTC
Structure (SMILES),IC50 [1] [nM],fold induction at 0.4 µM [2],activity ratio ([2]; NQO1 activity upon addition of 400 nM of test compound)
"CC[C@@H]1CN(Cc2cc([C@@H](CC(=O)O)c3ccc4c(nnn4CC(F)(F)F)c3C)cc3ccsc23)Cc2nc(O)ccc2O1 (single isomer, unassigned) [Example 27]",10 to 30,> 5,
"CC[C@@H]1CN(Cc2cc([C@@H](CC(=O)O)c3ccn4c(C)nnc4c3C)cc3ccsc23)Cc2nc(O)ccc2O1 (single isomer, unassigned) [Example 52, (3R*)-3-(3,8-Dimethyl[1,2,4]triazolo[4,3-a]pyridin-7-yl)-3-(7-{[(2R)-2-ethyl-7-hydroxy-2,3-dihydropyrido[2,3-f][1,4]oxazepin-4(5H)-yl]methyl}-1-benzothiophen-5-yl)propanoic acid]",30 to 300,3 to 5,
"CC[C@@H]1CN(Cc2cc([C@@H](CC(=O)O)c3ccn4c(C)nnc4c3C)cc3ccsc23)Cc2nc(O)ccc2O1 (single isomer, unassigned) [Example 53, (3S*)-3-(3,8-Dimethyl[1,2,4]triazolo[4,3-a]pyridin-7-yl)-3-(7-{[(2R)-2-ethyl-7-hydroxy-2,3-dihydropyrido[2,3-f][1,4]oxazepin-4(5H)-yl]methyl}-1-benzothiophen-5-yl)propanoic acid]",10 to 30,,B (B: 3<NQO1 activity ratio 5)
"Cc1c(C(CC(=O)O)c2cc(CN3Cc4nc(O)ccc4OC4(CC4)[C@H]3C)c3sccc3c2)ccc2c1nnn2C (single isomer, unassigned) [Example 58, (3R*)-3-(1,4-Dimethyl-1H-benzotriazol-5-yl)-3-(7-{[(3′R)-7′-hydroxy-3′-methyl-3′H-spiro[cyclopropane-1,2′-pyrido[2,3-f][1,4]oxazepin]-4′ (5′H)-yl]methyl}-1-benzothiophen-5-yl)propanoic acid]",300 to 3000,1.5 to 3,
"Cc1c(C(CC(=O)O)c2cc(CN3Cc4nc(O)ccc4OC4(CC4)[C@@H]3C)c3sccc3c2)ccc2c1nnn2C (single isomer, unassigned) [Example 60, (3R*)-3-(1,4-Dimethyl-1H-benzotriazol-5-yl)-3-(7-{[(3′S)-7′-hydroxy-3′-methyl-3′H-spiro[cyclopropane-1,2′-pyrido[2,3-f][1,4]oxazepin]-4′(5′H)-yl]methyl}-1-benzothiophen-5-yl)propanoic acid]",30 to 300,> 5,
"CC[C@@H]1CN(Cc2cc(C(CC(=O)O)c3ccc4c(nnn4C)c3C)cc3ccsc23)Cc2ncc(O)cc2O1 (single isomer, unassigned) [Example 65, (3R*)-3-(1,4-Dimethyl-1H-benzotriazol-5-yl)-3-(7-{[(2R)-2-ethyl-8-hydroxy-2,3-dihydropyrido[2,3-f][1,4]oxazepin-4(5H)-yl]methyl}-1-benzothiophen-5-yl)propanoic acid]",30 to 300,> 5,
"Cc1c([C@H](CC(=O)O)c2cc(CN3Cc4nc(O)ccc4CC(C4CC4)C3)c3sccc3c2)ccc2c1nnn2C (single isomer, unassigned) [Example 88, (3R)-3-(7-{[(6S*)-6-Cyclopropyl-2-hydroxy-5,6,7,9-tetrahydro-8H-pyrido[2,3-c]azepin-8-yl]methyl}-1-benzothiophen-5-yl)-3-(1,4-dimethyl-1H-benzotriazol-5-yl)propanoic acid]",30 to 300,> 5,
"Cc1c([C@H](CC(=O)O)c2cc(CN3Cc4nc(O)ccc4CC(C4CC4)C3)c3sccc3c2)cnc2c1nnn2C (single isomer, unassigned) [Example 90, (3R)-3-(7-{[(6R*)-6-Cyclopropyl-2-hydroxy-5,6,7,9-tetrahydro-8H-pyrido[2,3-c]azepin-8-yl]methyl}-1-benzothiophen-5-yl)-3-(3,7-dimethyl-3H-[1,2,3]triazolo[4,5-b]pyridin-6-yl)propanoic acid]",30 to 300,> 5,
"CC[C@@H]1CN(Cc2cc([C@H](CC(=O)O)c3ccc4c(nnn4C)c3C)cc3ccsc23)Cc2nc(O)ccc2O1 [Example 1, (3S)-3-(1,4-Dimethyl-1H-benzotriazol-5-yl)-3-(7-{[(2R)-2-ethyl-7-hydroxy-2,3-dihydropyrido[2,3-f][1,4]oxazepin-4(5H)-yl]methyl}-1-benzothiophen-5-yl)propanoic acid]",10 to 30,> 5,
"CC[C@@H]1CN(Cc2cc([C@@H](CC(=O)O)c3ccc4c(nnn4C)c3C)cc3ccsc23)Cc2nc(O)ccc2O1 [Example 2, (3R)-3-(1,4-Dimethyl-1H-benzotriazol-5-yl)-3-(7-{[(2R)-2-ethyl-7-hydroxy-2,3-dihydropyrido[2,3-f][1,4]oxazepin-4(5H)-yl]methyl}-1-benzothiophen-5-yl)propanoic acid]",30 to 300,> 5,
"Cc1c([C@@H](CC(=O)O)c2cc(CN3Cc4nc(O)ccc4OC4(CC4)C3)c3sccc3c2)ccc2c1nnn2C [Example 3, (3S)-3-(1,4-Dimethyl-1H-benzotriazol-5-yl)-3-{7-[(7′-hydroxy-3′H-spiro[cyclopropane-1,2′-pyrido[2,3-f][1,4]oxazepin]-4′(5′H)-yl)methyl]-1-benzothiophen-5-yl}propanoic acid]",10 to 30,> 5,
"Cc1c([C@H](CC(=O)O)c2cc(CN3Cc4nc(O)ccc4OC4(CC4)C3)c3sccc3c2)ccc2c1nnn2C [Example 4, (3R)-3-(1,4-Dimethyl-1H-benzotriazol-5-yl)-3-{7-[(7′-hydroxy-3′H-spiro[cyclopropane-1,2′-pyrido[2,3-f][1,4]oxazepin]-4′ (5′H)-yl)methyl]-1-benzothiophen-5-yl}propanoic acid]",10 to 30,> 5,
"Cc1c([C@@H](CC(=O)O)c2cc(CN3Cc4nc(O)ccc4O[C@H](C4CC4)C3)c3sccc3c2)ccc2c1nnn2C [Example 6, (3S)-3-(7-{[(2R)-2-Cyclopropyl-7-hydroxy-2,3-dihydropyrido[2,3-f][1,4]oxazepin-4(5H)-yl]methyl}-1-benzothiophen-5-yl)-3-(1,4-dimethyl-1H-benzotriazol-5-yl)propanoic acid]",10 to 30,> 5,
"Cc1c([C@@H](CC(=O)O)c2cc(CN3Cc4nc(O)ccc4O[C@@H](C4CC4)C3)c3sccc3c2)ccc2c1nnn2C [Example 7, (3S)-3-(7-{[(2S)-2-Cyclopropyl-7-hydroxy-2,3-dihydropyrido[2,3-f][1,4]oxazepin-4(5H)-yl]methyl}-1-benzothiophen-5-yl)-3-(1,4-dimethyl-1H-benzotriazol-5-yl)propanoic acid]",30 to 300,> 5,
"Cc1c([C@H](CC(=O)O)c2cc(CN3Cc4nc(O)ccc4O[C@@H](C4CC4)C3)c3sccc3c2)ccc2c1nnn2C [Example 8, (3R)-3-(7-{[(2S)-2-Cyclopropyl-7-hydroxy-2,3-dihydropyrido[2,3-f][1,4]oxazepin-4(5H)-yl]methyl}-1-benzothiophen-5-yl)-3-(1,4-dimethyl-1H-benzotriazol-5-yl)propanoic acid]",30 to 300,3 to 5,
"Cc1c([C@@H](CC(=O)O)c2cc(CN3Cc4nc(O)ccc4O[C@H](C4CC4)C3)c3sccc3c2)cnc2c1nnn2C [Example 9, (3S)-3-(7-{[(2R)-2-Cyclopropyl-7-hydroxy-2,3-dihydropyrido[2,3-f][1,4]oxazepin-4(5H)-yl]methyl}-1-benzothiophen-5-yl)-3-(3,7-dimethyl-3H-[1,2,3]triazolo[4,5-b]pyridin-6-yl)propanoic acid]",30 to 300,> 5,
